Results reported in patent publication US20250082687A1, “COMPOSITION FOR IMPROVING MEMORY OR COGNITIVE ABILITY, OR PREVENTING OR TREATING BRAIN NEUROLOGICAL DISEASE, COMPRISING PORCINE BRAIN ENZYME HYDROLYSATE” (UNIMED PHARMACEUTICALS INC., priority 2022, published 2025).
Where a SMILES comes first, the peptide text is derived from it.

How the values were obtained:
SH-SY5Y cells = test: Cytotoxicity of peptides (MTT cell viability); type: cell-based, human; conditions: 40 ug/mL (w/v), 48 hours
Protocol: (§1) SH-SY5Y cells, a human neuronal cell line, were obtained from the Korean Cell Line Bank (Cat No. 22266) and were cultured in Roswell Park Memorial Institute (RPMI) 1640 Medium (RPMI 1640, Cytiba) medium containing 10% fetal bovine serum (FBS, Cytiba) and 100 IU/ml penicillin and 100 μg/ml streptomycin in a 5% CO2, 37° C. incubator.
(§2) The human neuronal cell line SH-SY5Y was cultured and various concentrations of porcine brain enzyme hydrolysate-derived peptides were added to determine cell viability by MTT (methylthiazol tetrazolium bromide, Sigma Aldrich). Cells were seeded in appropriate amounts (1×10^5/well) in each well of a 24 well plate (BD, Falcon), treated with each concentration, and cell viability was determined after 48 hours of incubation in a 37° C. incubator. After 4 hours of reaction with MTT solution, the insoluble formazan crystals were dissolved by adding 400 μl of DMSO and the absorbance was measured with an ELISA reader (TECAN, Infinite M200 pro) at a wavelength of 570 nm.

[1] = Cytotoxicity of peptides (MTT cell viability); type: cell-based, human; conditions: human, SH-SY5Y cells, all tested concentrations (0.4˜40 ug/ml)
Protocol: as §1, §2

In the case of `C[C@H](NC(=O)[C@@H]1CCCN1C(=O)CN)C(=O)NCC(=O)N1CCC[C@H]1C(=O)N[C@@H](CCC(N)=O)C(=O)NCC(=O)N1CCC[C@H]1C(=O)N[C@@H](CCCNC(=N)N)C(=O)O` [brPEP-2, GPAGPQGPR], the cell viability (SH-SY5Y cells) is reported as 108.47%±5.20% and the viability at 48 h [1] is reported as over 90%.

With `CC[C@H](C)[C@H](NC(=O)[C@H](CO)NC(=O)[C@@H]1CCCN1)C(=O)N[C@@H](CO)C(=O)O` [brPEP-1, PSIS] (H-PSIS-OH) the cell viability (SH-SY5Y cells) was 93.05%±2.23% and the viability at 48 h [1] was over 90%.
